Some test systems named below: OVCAR-3 ovarian; OVCAR-5 ovarian; HCT-116 colon; ACHN renal; LOX IMVI melanoma; TK-10 renal; MDA-MB-435; HCC-2998 colon; SW-620 colon; UACC-257 melanoma.
What all share (experiment): inhibition of tumour cell growth, NCI panel, 48 h

Structures are written as SMILES.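 Where inhibition never reached the appropriate level, the endpoint shown equals the highest concentration tested. Otherwise, values were interpolated linearly from a five-concentration, 48-hour dose response in 96-well plates. GI50 = concentration required for 50% inhibition of growth. TGI: concentration producing complete growth inhibition.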 Some results are limits rather than exact numbers.

Take `CCOCCc1c(O)nc(SC)[nH]c1=O`: the GI50 was above 100 µM with OVCAR-3 ovarian; above 100 µM in the test with OVCAR-5 ovarian; above 100 µM in the test with HCT-116 colon; above 100 µM with ACHN renal; above 100000 nM with LOX IMVI melanoma; above 100000 nM in the test on TK-10 renal. The GI50 in the test with MDA-MB-435, in the test with HCC-2998 colon, in the test on SW-620 colon and with UACC-257 melanoma was above 100 µM throughout. In addition, the TGI with OVCAR-3 ovarian, with OVCAR-5 ovarian, in the test with HCT-116 colon, with ACHN renal, with LOX IMVI melanoma and in the test on TK-10 renal was above 100 µM each time. For the same molecule, the TGI in the test on MDA-MB-435, in the test with HCC-2998 colon, in the test on SW-620 colon and in the test on UACC-257 melanoma was above 100 µM in each case.
Consider `O=C1Nc2ccccc2C1(c1ccc(O)c(F)c1)c1ccc(O)c(F)c1`, for which the GI50 in the test with OVCAR-3 ovarian is 0.295 µM; in the test on OVCAR-5 ovarian, 16.4 µM; in the test with HCT-116 colon it was 11.6 µM; in the test with ACHN renal, 3.07 µM; in the test on LOX IMVI melanoma, 530 nM; with TK-10 renal, 409 nM. Moreover, the GI50 with MDA-MB-435 is 3.06 µM; in the test with HCC-2998 colon it was 4.72 µM; in the test with SW-620 colon it was 20.6 µM; with UACC-257 melanoma it was 24.6 µM. Besides, the TGI in the test on OVCAR-3 ovarian is 0.918 µM; with OVCAR-5 ovarian, 44.1 µM; with HCT-116 colon, 52.7 µM; in the test with ACHN renal, above 84 µM; with LOX IMVI melanoma it was 15.8 µM; in the test with TK-10 renal it was 11.3 µM. Further, the TGI worked out at 11.2 µM with MDA-MB-435, 25.3 µM in the test with HCC-2998 colon, 84.3 µM with SW-620 colon and 67.5 µM in the test with UACC-257 melanoma.
As for `COc1ccc(Nc2c3c4c(cccc4[nH]c2=O)C(=O)c2ccccc2-3)cc1`, the GI50 in the test with OVCAR-3 ovarian is below 0.0158 µM; in the test with OVCAR-5 ovarian, 0.0479 µM; with HCT-116 colon it was below 0.01 µM; with ACHN renal, 0.0406 µM; in the test with LOX IMVI melanoma, 23.9 nM; with TK-10 renal it was below 22.5 nM. In addition, the GI50 in the test on MDA-MB-435 is 0.0335 µM; in the test on HCC-2998 colon, 0.0221 µM; in the test on SW-620 colon, below 0.0203 µM; in the test with UACC-257 melanoma it was 1.21 µM. Moreover, the TGI with OVCAR-3 ovarian is below 0.0257 µM; in the test with OVCAR-5 ovarian, above 90.1 µM; with HCT-116 colon, 0.104 µM; in the test on ACHN renal it was above 100 µM; in the test with LOX IMVI melanoma, above 100 µM; in the test with TK-10 renal, 21.3 µM. Besides, the TGI in the test with MDA-MB-435 was above 100 µM; in the test on HCC-2998 colon it was 0.0482 µM; in the test with SW-620 colon, above 100 µM; in the test on UACC-257 melanoma it was above 92.4 µM.
Turning to `COc1ccc(/C=C2\N=C(c3ccccc3)N(c3cc(C(F)(F)F)ccc3Cl)C2=O)cc1OC`, the GI50 with OVCAR-3 ovarian is 37.9 µM; with OVCAR-5 ovarian, above 100 µM; in the test with HCT-116 colon it was 21.4 µM; in the test on ACHN renal, 58.1 µM; in the test with LOX IMVI melanoma, 23800 nM; in the test with TK-10 renal, 93600 nM. The GI50 with MDA-MB-435 was 40.6 µM; in the test with HCC-2998 colon, 65 µM; in the test on SW-620 colon, 20.5 µM; in the test on UACC-257 melanoma, above 100 µM. Moreover, the TGI in the test with OVCAR-3 ovarian is above 100 µM; with OVCAR-5 ovarian it was above 100 µM; with HCT-116 colon it was 41.4 µM; with ACHN renal it was above 100 µM; in the test with LOX IMVI melanoma, 51.6 µM; with TK-10 renal it was above 100 µM. Further, the TGI is above 100 µM in the test on MDA-MB-435, above 100 µM with HCC-2998 colon, 46.2 µM with SW-620 colon and above 100 µM with UACC-257 melanoma.
For `COc1cc(C(=O)NC2CCN(C)CC2)ccc1Nc1ncc2c(n1)N(C1CCCC1)CC(F)(F)C(=O)N2C`, the GI50 with OVCAR-3 ovarian is below 0.01 µM; with OVCAR-5 ovarian it was 0.0188 µM; in the test with HCT-116 colon, below 0.0118 µM; in the test on ACHN renal, 0.542 µM; with LOX IMVI melanoma it was below 16.7 nM; in the test on TK-10 renal, 1390 nM. Also, the GI50 with MDA-MB-435 is below 0.01 µM; with HCC-2998 colon, below 0.0166 µM; in the test on SW-620 colon, below 0.01 µM; in the test on UACC-257 melanoma, 0.222 µM. The TGI was determined as 3.9 µM in the test with OVCAR-3 ovarian; 12.1 µM with OVCAR-5 ovarian; 11.2 µM in the test with HCT-116 colon; 14.9 µM with ACHN renal; 2.37 µM in the test with LOX IMVI melanoma; 14.4 µM in the test on TK-10 renal. The TGI in the test with MDA-MB-435 was below 0.01 µM; in the test with HCC-2998 colon, 2.2 µM; with SW-620 colon, 10.4 µM; with UACC-257 melanoma it was 6.61 µM.
As to `CC(=O)Oc1ccc2ccc(=O)oc2c1OC(C)=O`, the TGI with OVCAR-3 ovarian, in the test with OVCAR-5 ovarian, in the test on HCT-116 colon, in the test with ACHN renal, in the test with LOX IMVI melanoma and in the test with TK-10 renal was above 100 µM in each case. Moreover, the TGI in the test on MDA-MB-435, in the test on HCC-2998 colon, in the test with SW-620 colon and in the test with UACC-257 melanoma was above 100 µM in each case.
Turning to `C[N+](C)(C)CCC(=O)N1C/C(=C\c2ccccc2)C(=O)/C(=C/c2ccccc2)C1`, the TGI stood at 9.31 µM in the test with OVCAR-3 ovarian; 30.6 µM in the test with OVCAR-5 ovarian; 2.98 µM in the test on HCT-116 colon; 15.3 µM in the test with ACHN renal; 3.46 µM in the test with LOX IMVI melanoma; 23.6 µM in the test on TK-10 renal. The TGI amounted to 5.49 µM with MDA-MB-435, 13.2 µM in the test with HCC-2998 colon, 2.68 µM in the test with SW-620 colon and 28.2 µM with UACC-257 melanoma.
For `O=S(=O)(O)c1ccc(Cl)cc1.[Cd]`, the GI50 with OVCAR-3 ovarian was 18.5 µM; with OVCAR-5 ovarian, above 100 µM; in the test with HCT-116 colon it was above 100 µM; in the test with ACHN renal, above 100 µM; in the test with LOX IMVI melanoma it was above 100000 nM; with TK-10 renal, above 100000 nM. Also, the GI50 with MDA-MB-435 is 20.5 µM; with HCC-2998 colon, above 100 µM; with SW-620 colon, 52.3 µM; in the test with UACC-257 melanoma, 29.6 µM. In addition, the TGI in the test on OVCAR-3 ovarian was 44.4 µM; with OVCAR-5 ovarian, above 100 µM; in the test with HCT-116 colon, above 100 µM; in the test on ACHN renal, above 100 µM; in the test with LOX IMVI melanoma it was above 100 µM; in the test with TK-10 renal, above 100 µM. The TGI is 63 µM with MDA-MB-435, above 100 µM with HCC-2998 colon, above 100 µM in the test on SW-620 colon and 78.8 µM in the test on UACC-257 melanoma.

Source of the values: PubChem BioAssay (NCI).
